The values that follow come from patent US20190134039A1, “ANTIVIRAL JAK INHIBITORS USEFUL IN TREATING OR PREVENTING RETROVIRAL AND OTHER VIRAL INFECTIONS” (EMORY UNIVERSITY, priority 2011, published 2019).

Series [1] relates to latent HIV-1. Nature of the series: Reactivation of latent HIV-1, primary central memory-based T cell latency model. The note with it: concentrations found during steady-state or Cmax in vivo.
For series [2], the system named is acute infection in rhesus macaque lymphocytes. As to the kind of experiment: cells. The note with it: Macaca mulatta, Lymphocyte. An excerpt: (§1) The data (Shown in Table 5 below) are mean and standard deviations from at least three independent experiments.
Series [3] has as its system acute infection in rhesus macaque macrophages. As to the kind of experiment: cells. The note with it: for EC90: read-out: Acute infection in rhesus macaque macrophages EC90.
Text: as §1

Series [4] has as its system HIV-1 containing 4xAZT (D67N/K70R/T215Y/K219Q). As to the kind of experiment: microbe, parasite or virus in culture. It counts as cell-based.
Series [5] deals with PHA+IL-2 stimulated primary human lymphocytes. Nature of the series: Proliferation and viability of PHA+IL-2 stimulated primary human lymphocytes. Format: cell-based. The note with it: PHA+IL-2 stimulated lymphocytes, 5 days. The procedure: The effect of various Jak inhibitors on proliferation and viability of PHA or PHA+IL-2 stimulated primary human lymphocytes was evaluated using the techniques described above.
For all experiments, cells were incubated with media alone or drug-containing medium for 5 days prior to assessment of cell count and viability. Data are mean and standard deviations for at least three independent experiments conducted with at least 4 pooled donors, and duplicates within each experiment.

Series [6] deals with HIV-1 containing K65R. Nature of the series: microbe, parasite or virus in culture. It counts as cell-based.
The test system of series [7] is PHA stimulated PBM cells. Nature of the series: cells. The note with it: Homo sapiens, PBMC, read-out: IC50 in PHA stimulated PBM cells *MTT Assay.
Setting [8] is: Human immunodeficiency virus 1, Lymphocyte.

Like-named read-outs stand apart in the source and are kept apart here.

Take `N#CC[C@H](C1CCCC1)n1cc(-c2ncnc3[nH]ccc23)cn1` [Jakafi, Ruxolitinib]: the “inhibition of reactivation of latent HIV-1” value in series [1] is reported as ≥ 50%. For the same molecule, the concentration giving a half-maximal response (EC50) in series [2] (read-out: Acute infection in rhesus macaque lymphocytes EC50) is 90 ± 100 nM; in series [3] (Macaca mulatta, Macrophage, read-out: Acute infection in rhesus macaque macrophages EC50), ~400 nM; in series [4] (setting [8]), 90 ± 100 nM; in series [6] (setting [8]), 200 ± 300 nM. For the same molecule, the EC90 in series [2] (read-out: Acute infection in rhesus macaque lymphocytes EC90) was 1300 ± 800 nM; in series [3] (Macaca mulatta, Macrophage) it was ~4000 nM; in series [3], 4200 ± 1300 nM; in series [4] (setting [8]), 2400 ± 2000 nM; in series [6] (setting [8]) it was 8500 ± 8100 nM. Moreover, the “FI50 (ratio of EC50 against mutant virus:EC50 against wild-type xxLAI)” value in series [4] (4xAZT (D67N/K70R/T215Y/K219Q)) worked out at 0.3; in series [6] (K65R) it was 0.8. Besides, the “FI90 (ratio of EC90 against mutant virus:EC90 against wild-type xxLAI)” value in series [4] (4xAZT (D67N/K70R/T215Y/K219Q)) was 0.4; in series [6] (K65R), 1.4. Further, the “proliferation versus cells exposed to media alone” value in series [5] (1.0 μM) is given as “significantly inhibited”. Also, in series [5] (all concentrations), the “viability versus cells exposed to media alone” value was “not significantly different”. Also, the IC50 in series [7] was 9100 ± 1300 nM.

By EC50 is commonly meant the concentration needed to bring the measured effect to its halfway point. Broadly, the EC90 is the concentration needed for an effect of 90%. The IC50 is the midpoint of a concentration-inhibition curve.
